Measured values: patent publication US20050197350A1, “Novel quinoline, tetrahydroquinazoline, and pyrimidine derivatives and methods of treatment related to the use thereof” (TAISHO PHARMACEUTICAL CO., LTD., priority 2003, published 2005)

The compounds below were run on MCH receptors (assay: MCH receptor activity class (method not given)). Settings: MCH receptor activity class 1-3 (percent of control at 10^-7 M or IC50).
With CN(C)c1ccnc(N[C@H]2CC[C@@H](CNC(=O)Nc3ccc(C#N)cc3)CC2)n1 [compound 2434] the class was 3 (Class 3 The value of percent of control at 10^−7 M was more than 60% or the value of IC50 was more than 200 nM.). CCc1cccc(C)c1NC(=S)N[C@H]1CC[C@@H](Nc2nccc(N(C)C)n2)CC1 [compound 2325] was tested, and the class was 3 (Class 3 The value of percent of control at 10^−7 M was more than 60% or the value of IC50 was more than 200 nM.).

Same assay, conditions: MCH receptor; class by percent of control at 10^-7 M or IC50
With CCCCc1ccc(NC(=S)N[C@H]2CC[C@@H](Nc3nc4c(c(N(C)C)n3)CCCC4)CC2)cc1 [compound 2022] the class was 3 (Class 3 The value of percent of control at 10^−7 M was more than 60% or the value of IC50 was more than 200 nM.). CN(C)c1cc(N[C@H]2CC[C@@H](NC(=O)c3cccc4ccccc34)CC2)nc2ccccc12 [compound 109] was tested, and the class was 3 (Class 3 The value of percent of control at 10^−7 M was more than 60% or the value of IC50 was more than 200 nM.).

Same assay, conditions: class by percent of control at 10^-7 M or IC50
With Cc1cc(C)c2occ(CN[C@H]3CC[C@@H](Nc4nccc(N(C)C)n4)CC3)c(=O)c2c1 [compound 1229] the class was 3 (Class 3 The value of percent of control at 10^−7 M was more than 60% or the value of IC50 was more than 200 nM.). For Cc1cc(Br)ccc1NC(=S)N[C@H]1CC[C@@H](Nc2nc3c(c(N(C)C)n2)CCCC3)CC1 [compound 1764, N-(4-bromo-2-methylphenyl)-N′-(cis-4-{[4-(dimethylamino)-5,6,7,8-tetrahydroquinazolin-2-yl]amino}cyclohexyl)thiourea], the class was 1 (Class 1: The value of percent of control at 10^−7 M was less than 40% or the value of IC50 was less than 50 nM.). For COc1ccc2[nH]c(C)c(CC(=O)NC[C@H]3CC[C@@H](Nc4nccc(N(C)C)n4)CC3)c2c1 [compound 933], the class was 3 (Class 3 The value of percent of control at 10^−7 M was more than 60% or the value of IC50 was more than 200 nM.). With CN(C)c1ccnc(N[C@H]2CC[C@@H](NC(=O)c3cc(-c4ccccc4)nc4ccccc34)CC2)n1 [compound 896, N-(cis-4-{[4-(dimethylamino)pyrimidin-2-yl]amino}cyclohexyl)-2-phenylquinoline-4-carboxamide] the class was 2 (Class 2: The value of percent of control at 10^−7 M was from 40% to 60% or the value of IC′50 was from 50 nM to 200 nM.). For CN(C)c1cc(N[C@H]2CC[C@@H](NC(=O)Cc3c(Cl)ccc(Cl)c3Cl)CC2)nc2ccccc12 [compound 674, N-(cis-4-{[4-(dimethylamino)quinolin-2-yl]amino}cyclohexyl)-2-(2,3,6-trichlorophenyl)acetamide], the class was 3 (Class 3 The value of percent of control at 10^−7 M was more than 60% or the value of IC50 was more than 200 nM.). Cc1cccc(C(=O)NC[C@H]2CC[C@@H](Nc3nc4c(c(N(C)C)n3)CCCC4)CC2)c1 [compound 612] was tested, and the class was 3 (Class 3 The value of percent of control at 10^−7 M was more than 60% or the value of IC50 was more than 200 nM.). With CN(C)c1cc(N[C@H]2CC[C@@H](NC(=S)Nc3ccc(Br)cc3Cl)CC2)nc2ccccc12 [compound 2271] the class was 3 (Class 3 The value of percent of control at 10^−7 M was more than 60% or the value of IC50 was more than 200 nM.). With CN(C)c1ccnc(N[C@H]2CC[C@@H](CNC(=O)c3ccc(Cl)c([N+](=O)[O-])c3)CC2)n1 [compound 372] the class was 2 (Class 2: The value of percent of control at 10^−7 M was from 40% to 60% or the value of IC′50 was from 50 nM to 200 nM.). In the case of CN(C)c1ccnc(N[C@H]2CC[C@@H](NC(=O)/C=C/c3ccc([N+](=O)[O-])cc3)CC2)n1 [compound 297], the class is reported as 3 (Class 3 The value of percent of control at 10^−7 M was more than 60% or the value of IC50 was more than 200 nM.). With CN(C)c1ccnc(N[C@H]2CC[C@@H](NC(=O)Cc3ccccc3I)CC2)n1 [compound 820] the class was 3 (Class 3 The value of percent of control at 10^−7 M was more than 60% or the value of IC50 was more than 200 nM.).

Same assay, conditions: class by percent of control at 10^−7 M or IC50
In the case of Cc1ncccc1C(=O)N[C@H]1CC[C@@H](Nc2nc(C)c(C)c(N(C)C)n2)CC1 [compound 2831], the class is reported as 3 (Class 3 The value of percent of control at 10^−7 M was more than 60% or the value of IC50 was more than 200 nM.).
